Test results taken from patent US11331364B2, “Use for JNK inhibitor molecules for treatment of various diseases” (Xigen Inflammation Ltd., priority 2014, dated 2022).
Where two headings read alike, the source gives them in different places. Square brackets hold non-standard residues; d marks the D form. Peptide text beside a SMILES is read from it.

Legend:
hJNK1 = molecular target: T1, hJNK1 (Homo sapiens, UniProt P45983); experiment: hJNK1 | IC50
T1 construct: His; purchased Upstate 14-327
From the text: (§1) Table printed on a drawing sheet, Fig. 4
Head of the field: hJNK1 | IC50
(§2) The patent's description of the figure: FIG. 4: Table illustrating the inhibitory efficacy of several JNK inhibitors according to the present invention, which are fusion proteins of a JNK inhibitory (poly-)peptide sequence and a transporter sequence. Given are the IC50 values in the nM range, the respective standard error of the mean (SEM) and the number of experiments performed (n).
(§3) First copying reader's note: The sheet prints no unit for IC50 (the description says nM range); decimal commas are used, except for three IC50 cells printed with a point (3820.81, 5340.33, 8130.86).
Where the first naming reader finds the target: head: hJNK1 | IC50

hJNK2 = hJNK2 (Homo sapiens, UniProt P45984); experiment: hJNK2 | IC50
hJNK2, sequence (P45984 whole entry, looked up): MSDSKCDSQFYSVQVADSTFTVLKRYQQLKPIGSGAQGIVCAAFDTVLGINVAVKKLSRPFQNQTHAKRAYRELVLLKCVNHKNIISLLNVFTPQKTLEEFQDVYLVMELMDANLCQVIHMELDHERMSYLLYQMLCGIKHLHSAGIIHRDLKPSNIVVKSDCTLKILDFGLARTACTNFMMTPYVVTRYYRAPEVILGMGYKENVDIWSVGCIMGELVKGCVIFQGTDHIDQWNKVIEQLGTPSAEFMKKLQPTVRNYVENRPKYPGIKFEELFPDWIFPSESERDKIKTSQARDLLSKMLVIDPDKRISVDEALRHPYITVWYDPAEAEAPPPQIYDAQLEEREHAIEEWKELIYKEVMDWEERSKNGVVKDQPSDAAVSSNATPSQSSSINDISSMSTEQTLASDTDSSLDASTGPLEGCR
From the text: as §1
Head of the field: hJNK2 | IC50
as §2, §3
Where the first naming reader finds the target: head: hJNK2 | IC50

hJNK3 = hJNK3 (Homo sapiens, UniProt P53779); experiment: hJNK3 | IC50
hJNK3, sequence (P53779 whole entry, looked up): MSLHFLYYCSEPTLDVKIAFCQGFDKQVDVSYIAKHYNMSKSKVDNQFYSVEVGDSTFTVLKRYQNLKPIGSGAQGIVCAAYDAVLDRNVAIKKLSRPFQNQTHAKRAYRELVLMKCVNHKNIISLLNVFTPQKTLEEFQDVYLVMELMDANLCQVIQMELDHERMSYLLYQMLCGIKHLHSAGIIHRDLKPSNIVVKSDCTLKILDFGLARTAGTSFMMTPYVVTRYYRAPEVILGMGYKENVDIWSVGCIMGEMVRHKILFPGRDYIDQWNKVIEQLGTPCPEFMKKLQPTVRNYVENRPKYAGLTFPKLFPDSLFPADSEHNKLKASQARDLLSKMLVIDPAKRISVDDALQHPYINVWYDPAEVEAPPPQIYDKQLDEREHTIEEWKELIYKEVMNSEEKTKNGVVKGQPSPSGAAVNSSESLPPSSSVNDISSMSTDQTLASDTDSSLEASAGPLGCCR
From the text: as §1
Head of the field: hJNK3 | IC50
as §2, §3
Where the first naming reader finds the target: head: hJNK3 | IC50

T1 sequence (P45983 whole entry, looked up): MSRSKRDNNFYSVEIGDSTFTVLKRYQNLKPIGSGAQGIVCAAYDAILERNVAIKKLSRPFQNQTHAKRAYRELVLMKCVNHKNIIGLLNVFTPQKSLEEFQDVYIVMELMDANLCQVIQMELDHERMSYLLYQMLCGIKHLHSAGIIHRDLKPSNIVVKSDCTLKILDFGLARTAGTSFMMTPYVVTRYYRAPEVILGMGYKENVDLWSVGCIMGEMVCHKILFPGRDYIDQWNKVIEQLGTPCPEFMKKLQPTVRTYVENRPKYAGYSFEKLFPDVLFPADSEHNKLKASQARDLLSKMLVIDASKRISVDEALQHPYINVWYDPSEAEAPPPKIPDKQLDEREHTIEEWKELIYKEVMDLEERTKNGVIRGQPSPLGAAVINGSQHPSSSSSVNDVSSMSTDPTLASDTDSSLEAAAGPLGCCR

Structure (SMILES)	IC50 (hJNK1; read-out: hJNK1 | IC50) [nM]	IC50 (hJNK2; read-out: hJNK2 | IC50) [nM]	IC50 (hJNK3; read-out: hJNK3 | IC50) [nM]	IC50 (hJNK1) [nM]	IC50 (hJNK2) [nM]	IC50 (hJNK3) [nM]
CC(C)C[C@H](NC(=O)[C@H](CC(N)=O)NC(=O)[C@H](CC(C)C)NC(=O)[C@@H](NC(=O)[C@@H](C)NC(=O)[C@@H]1CCCN1C(=O)[C@H](CCCNC(=N)N)NC(=O)[C@H](CCCCN)NC(=O)[C@@H](CCCNC(=N)N)NC(=O)[C@H](CCCNC(=N)N)NC(=O)[C@H](CCC(N)=O)NC(=O)[C@@H](CCCNC(=N)N)NC(=O)[C@H](CCCNC(=N)N)NC(=O)[C@H](CCCCN)NC(=O)[C@H](CCCCN)NC(=O)[C@H](N)CCCNC(=N)N)[C@@H](C)O)C(=O)N[C@H](Cc1ccccc1)C(N)=O [SEQ ID NO: 184, rKKRrQRrKRPaTLNLf] (H-[dR]KKR[dR]QR[dR]KRP[dA]TLNL[dF]-NH2)	2430	206	129			
CC(C)C[C@H](NC(=O)[C@H](CC(N)=O)NC(=O)[C@H](CC(C)C)NC(=O)[C@@H](NC(=O)[C@@H](CO)NC(=O)[C@@H]1CCCN1C(=O)[C@H](CCCNC(=N)N)NC(=O)[C@@H](CCCCN)NC(=O)[C@@H]1CCCN1C(=O)[C@H](CCCNC(=N)N)NC(=O)[C@@H](CCCNC(=N)N)NC(=O)[C@H](CCCNC(=N)N)NC(=O)[C@H](CCCNC(=N)N)NC(=O)[C@H](CCC(N)=O)NC(=O)[C@@H](CCCNC(=N)N)NC(=O)[C@H](CCCNC(=N)N)NC(=O)[C@H](CCCCN)NC(=O)[C@H](CCCCN)NC(=O)[C@H](N)CCCNC(=N)N)[C@@H](C)O)C(=O)N[C@H](Cc1ccccc1)C(N)=O [SEQ ID NO: 185, rKKRrQRRrRPkRPsTLNLf] (H-[dR]KKR[dR]QRR[dR]RP[dK]RP[dS]TLNL[dF]-NH2)	766	72.1	35.5			
CC(C)C[C@H](NC(=O)[C@H](CC(N)=O)NC(=O)[C@H](CC(C)C)NC(=O)[C@@H](NC(=O)[C@@H](CCC(N)=O)NC(=O)[C@@H]1CCCN1C(=O)[C@H](CCCNC(=N)N)NC(=O)[C@@H](CCCCN)NC(=O)[C@@H]1CCCN1C(=O)[C@H](CCCNC(=N)N)NC(=O)[C@@H](CCCNC(=N)N)NC(=O)[C@H](CCCNC(=N)N)NC(=O)[C@H](CCCNC(=N)N)NC(=O)[C@H](CCC(N)=O)NC(=O)[C@@H](CCCNC(=N)N)NC(=O)[C@H](CCCNC(=N)N)NC(=O)[C@H](CCCCN)NC(=O)[C@H](CCCCN)NC(=O)[C@H](N)CCCNC(=N)N)[C@@H](C)O)C(=O)N[C@H](Cc1ccccc1)C(N)=O [SEQ ID NO: 186, rKKRrQRRrRPkRPqTLNLf] (H-[dR]KKR[dR]QRR[dR]RP[dK]RP[dQ]TLNL[dF]-NH2)	1020	52.6	44.2			
CC(C)C[C@H](NC(=O)[C@H](CC(N)=O)NC(=O)[C@H](CC(C)C)NC(=O)[C@@H](NC(=O)[C@@H](CCCCN)NC(=O)[C@@H]1CCCN1C(=O)[C@H](CCCNC(=N)N)NC(=O)[C@@H](CCCCN)NC(=O)[C@@H]1CCCN1C(=O)[C@H](CCCNC(=N)N)NC(=O)[C@@H](CCCNC(=N)N)NC(=O)[C@H](CCCNC(=N)N)NC(=O)[C@H](CCCNC(=N)N)NC(=O)[C@H](CCC(N)=O)NC(=O)[C@@H](CCCNC(=N)N)NC(=O)[C@H](CCCNC(=N)N)NC(=O)[C@H](CCCCN)NC(=O)[C@H](CCCCN)NC(=O)[C@H](N)CCCNC(=N)N)[C@@H](C)O)C(=O)N[C@H](Cc1ccccc1)C(N)=O [SEQ ID NO: 187, rKKRrQRRrRPkRPkTLNLf] (H-[dR]KKR[dR]QRR[dR]RP[dK]RP[dK]TLNL[dF]-NH2)	594	37.9	25.4			
CC(C)C[C@H](NC(=O)[C@H](C)NC(=O)[C@H](CCCCN)NC(=O)[C@H](CCCNC(=N)N)NC(=O)[C@H](CCCCN)NC(=O)CNC(=O)[C@@H](CCCNC(=N)N)NC(=O)[C@H](CCCNC(=N)N)NC(=O)[C@H](CCCNC(=N)N)NC(=O)[C@H](CCC(N)=O)NC(=O)[C@@H](CCCNC(=N)N)NC(=O)[C@H](CCCNC(=N)N)NC(=O)[C@H](CCCCN)NC(=O)[C@H](CCCCN)NC(=O)[C@H](N)CCCNC(=N)N)C(=O)N[C@@H](CCCCN)C(=O)N[C@@H](CC(C)C)C(=O)N[C@H](Cc1ccccc1)C(N)=O [SEQ ID NO: 188] (H-[dR]KKR[dR]QRR[dR]GKRKALKL[dF]-NH2)	1420	98.1	36.1			
CC(C)C[C@H](NC(=O)[C@H](C)NC(=O)[C@H](CCCCN)NC(=O)[C@H](CCCNC(=N)N)NC(=O)[C@H](CCCCN)NC(=O)CNC(=O)[C@@H](CCCNC(=N)N)NC(=O)[C@H](CCCNC(=N)N)NC(=O)[C@H](CCCNC(=N)N)NC(=O)[C@H](CCC(N)=O)NC(=O)[C@@H](CCCNC(=N)N)NC(=O)[C@H](CCCNC(=N)N)NC(=O)[C@H](CCCCN)NC(=O)[C@H](CCCCN)NC(=O)[C@H](N)CCCNC(=N)N)C(=O)N[C@H](CCCNC(=N)N)C(=O)N[C@@H](CC(C)C)C(=O)N[C@H](Cc1ccccc1)C(N)=O [SEQ ID NO: 189, rKKRrQRRrGKRKALrLf] (H-[dR]KKR[dR]QRR[dR]GKRKAL[dR]L[dF]-NH2)				22300	176	128
CC(C)C[C@H](NC(=O)[C@H](C)NC(=O)[C@H](CCCCN)NC(=O)[C@H](CCCNC(=N)N)NC(=O)[C@@H](CCCNC(=N)N)NC(=O)[C@H](CCCNC(=N)N)NC(=O)[C@H](CCCNC(=N)N)NC(=O)[C@H](CCC(N)=O)NC(=O)[C@@H](CCCNC(=N)N)NC(=O)[C@H](CCCNC(=N)N)NC(=O)[C@H](CCCCN)NC(=O)[C@H](CCCCN)NC(=O)[C@H](N)CCCNC(=N)N)C(=O)N[C@H](CCCNC(=N)N)C(=O)N[C@@H](CC(C)C)C(=O)N[C@H](Cc1ccccc1)C(N)=O [SEQ ID NO: 190, rKKRrQRRrRKALrLf] (H-[dR]KKR[dR]QRR[dR]RKAL[dR]L[dF]-NH2)	8970	148	159			
CC(C)C[C@H](NC(=O)[C@H](CC(N)=O)NC(=O)[C@H](CC(C)C)NC(=O)[C@@H](NC(=O)[C@@H](NC(=O)[C@@H]1CCCN1C(=O)[C@H](CCCNC(=N)N)NC(=O)[C@H](CCCCN)NC(=O)[C@@H]1CCCN1C(=O)[C@@H]1CCCN1C(=O)[C@H](CCCNC(=N)N)NC(=O)[C@H](CCCNC(=N)N)NC(=O)[C@H](CCCNC(=N)N)NC(=O)[C@H](CCC(N)=O)NC(=O)[C@H](CCCNC(=N)N)NC(=O)[C@H](CCCNC(=N)N)NC(=O)[C@H](CCCCN)NC(=O)[C@H](CCCCN)NC(=O)[C@H](CCCNC(=N)N)NC(=O)CN)[C@@H](C)O)[C@@H](C)O)C(=O)N[C@@H](Cc1ccccc1)C(=O)N1CCC[C@H]1C(=O)N[C@@H](CCC(N)=O)C(=O)N[C@H](C(=O)N1CCC[C@H]1C(=O)N[C@@H](CCCNC(=N)N)C(=O)N[C@@H](CO)C(=O)N[C@@H](CCC(N)=O)C(=O)N[C@@H](CC(=O)O)C(N)=O)C(C)C [SEQ ID NO: 194] (H-GRKKRRQRRRPPKRPTTLNLFPQVPRSQD-NH2)				14	12.7	2.59
CC(C)C[C@H](NC(=O)[C@H](CC(N)=O)NC(=O)[C@H](CC(C)C)NC(=O)[C@@H](NC(=O)[C@@H](NC(=O)[C@@H]1CCCN1C(=O)[C@H](CCCNC(=N)N)NC(=O)[C@H](CCCNC(=N)N)NC(=O)[C@H](CCCNC(=N)N)NC(=O)[C@H](CCC(N)=O)NC(=O)[C@H](CCCNC(=N)N)NC(=O)[C@H](CCCNC(=N)N)NC(=O)[C@H](CCCCN)NC(=O)[C@H](CCCCN)NC(=O)[C@H](CCCNC(=N)N)NC(=O)CN)[C@@H](C)O)[C@@H](C)O)C(=O)N[C@@H](Cc1ccccc1)C(=O)N1CCC[C@H]1C(=O)N[C@@H](CCC(N)=O)C(=O)N[C@H](C(=O)N1CCC[C@H]1C(=O)N[C@@H](CCCNC(=N)N)C(=O)N[C@@H](CO)C(=O)N[C@@H](CCC(N)=O)C(=O)N[C@@H](CC(=O)O)C(N)=O)C(C)C [SEQ ID NO: 195] (H-GRKKRRQRRRPTTLNLFPQVPRSQD-NH2)				10.8	11.3	4.92
CC(C)C[C@H](NC(=O)[C@H](CC(N)=O)NC(=O)[C@H](CC(C)C)NC(=O)[C@@H](NC(=O)[C@@H](NC(=O)[C@@H]1CCCN1C(=O)[C@H](CCCNC(=N)N)NC(=O)[C@H](CCCCN)NC(=O)[C@@H]1CCCN1C(=O)[C@H](CCCNC(=N)N)NC(=O)[C@@H]1CCCN1C(=O)[C@@H]1CCCN1C(=O)[C@H](CCCNC(=N)N)NC(=O)[C@H](CCCNC(=N)N)NC(=O)[C@H](CCCNC(=N)N)NC(=O)[C@H](CCC(N)=O)NC(=O)[C@H](CCCNC(=N)N)NC(=O)[C@H](CCCNC(=N)N)NC(=O)[C@H](CCCCN)NC(=O)[C@H](CCCCN)NC(=O)[C@H](CCCNC(=N)N)NC(=O)CN)[C@@H](C)O)[C@@H](C)O)C(=O)N[C@@H](Cc1ccccc1)C(=O)N1CCC[C@H]1C(=O)N[C@@H](CCC(N)=O)C(=O)N[C@H](C(=O)N1CCC[C@H]1C(=O)N[C@@H](CCCNC(=N)N)C(=O)N[C@@H](CO)C(=O)N[C@@H](CCC(N)=O)C(=O)N[C@@H](CC(=O)O)C(N)=O)C(C)C [SEQ ID NO: 196] (H-GRKKRRQRRRPPRPKRPTTLNLFPQVPRSQD-NH2)				42.2	8.43	5.22
